Results as given in the OligoGym collection.
HELM strings list units from the 5' end as sugar, base in round brackets, then linkage (d deoxyribose, r ribose, m 2'-O-methyl, p phosphodiester). Strings are as the collection lists them; they lack the last nucleoside at the 3' end of the tested compound. [moe] = 2'-O-(2-methoxyethyl) (MOE); [sp] = phosphorothioate linkage; [m5C] = 5-methylcytosine

The substances below were run against SCN2A (assay: mouse, dose not given). Conditions: ASO.

Going from “RNA1{[moe]([m5C])[sp].[moe](A)p.[moe](G)p.[moe]([m5C])p.[moe](A)p.[moe](T)p.d(A)[sp].d(T)[sp].d(T)[sp].d([m5C])[sp].d(T)[sp].d(A)[sp].d(A)[sp].d([m5C])[sp].d(A)[sp].d(T)[sp].[moe](G)p.[moe](G)[sp].[moe](T)}$$$$ (last 3' nucleoside missing)” to “RNA1{[moe](T)[sp].[moe]([m5C])p.[moe](T)p.[moe](A)p.[moe](T)p.[moe](T)[sp].d(T)[sp].d(T)[sp].d(A)[sp].d(T)[sp].d(A)[sp].d(A)[sp].d(A)[sp].d(T)[sp].[moe](G)p.[moe]([m5C])[sp].[moe]([m5C])}$$$$ (last 3' nucleoside missing)”, the 3 h FOB score rises from 0 score 0-7 to 1 score 0-7.

Going from “RNA1{[moe]([m5C])[sp].[moe](A)p.[moe](T)p.[moe](A)p.[moe](A)p.d(T)[sp].d([m5C])[sp].d([m5C])[sp].d([m5C])[sp].d(A)[sp].d(T)[sp].d(T)[sp].d(A)[sp].d(T)[sp].d(A)[sp].[moe]([m5C])p.[moe](A)p.[moe](A)[sp].[moe](A)}$$$$ (last 3' nucleoside missing)” to “RNA1{[moe]([m5C])[sp].[moe](A)p.[moe]([m5C])p.[moe](G)p.[moe](A)p.[moe]([m5C])p.d(A)[sp].d(T)[sp].d(A)[sp].d(T)[sp].d(T)[sp].d(T)[sp].d(T)[sp].d(T)[sp].d([m5C])[sp].d(T)[sp].[moe](A)p.[moe]([m5C])[sp].[moe](A)}$$$$ (last 3' nucleoside missing)”, the 3 h FOB score rises from 0 score 0-7 to 0.5 score 0-7.

Going from “RNA1{[moe](T)[sp].[moe]([m5C])p.[moe](T)p.[moe](T)p.[moe](T)p.d([m5C])[sp].d(T)[sp].d(T)[sp].d(A)[sp].d(T)[sp].d(T)[sp].d(T)[sp].d([m5C])[sp].d(T)[sp].d(G)[sp].[moe](T)p.[moe](T)p.[moe](T)[sp].[moe]([m5C])}$$$$ (last 3' nucleoside missing)” to “RNA1{[moe](A)[sp].[moe](T)p.[moe]([m5C])p.[moe](A)p.[moe](T)p.d(G)[sp].d([m5C])[sp].d(A)[sp].d(T)[sp].d(A)[sp].d(A)[sp].d(T)[sp].d([m5C])[sp].d([m5C])[sp].d([m5C])[sp].[moe](A)p.[moe](T)p.[moe](T)[sp].[moe](A)}$$$$ (last 3' nucleoside missing)”, the 3 h FOB score falls from 1.67 score 0-7 to 0 score 0-7.

First: RNA1{[moe](G)[sp].[moe](T)p.[moe](A)p.[moe](A)p.[moe]([m5C])p.d([m5C])[sp].d(T)[sp].d(T)[sp].d(T)[sp].d(A)[sp].d(T)[sp].d(A)[sp].d([m5C])[sp].d(A)[sp].d(T)[sp].[moe](T)p.[moe](T)p.[moe](A)[sp].[moe](A)}$$$$ (last 3' nucleoside missing)
Second: RNA1{[moe]([m5C])[sp].[moe](A)p.[moe](T)p.[moe](G)p.[moe](T)p.[moe](A)[sp].d(A)[sp].d([m5C])[sp].d([m5C])[sp].d(T)[sp].d(T)[sp].d(T)[sp].d(A)[sp].d(T)[sp].[moe](A)p.[moe]([m5C])[sp].[moe](A)}$$$$ (last 3' nucleoside missing)
The 3 h FOB score of the first is higher: 0.33 score 0-7 for the first, 0 score 0-7 for the second.

First: RNA1{[moe]([m5C])[sp].[moe](A)p.[moe](G)p.[moe]([m5C])p.d(A)[sp].d(T)[sp].d(G)[sp].d(T)[sp].d(T)[sp].d(T)[sp].d(A)[sp].d(T)[sp].d([m5C])[sp].d(T)[sp].[moe](T)p.[moe](A)p.[moe](G)p.[moe](T)[sp].[moe](T)}$$$$ (last 3' nucleoside missing)
Second: RNA1{[moe](T)[sp].[moe](T)p.[moe]([m5C])p.[moe](T)p.d(A)[sp].d(T)[sp].d(T)[sp].d(T)[sp].d(T)[sp].d(A)[sp].d(T)[sp].d(A)[sp].d(A)[sp].d(A)[sp].[moe](T)p.[moe](G)p.[moe]([m5C])p.[moe]([m5C])[sp].[moe](G)}$$$$ (last 3' nucleoside missing)
The 3 h FOB score of the first is lower: 0 score 0-7 for the first, 1 score 0-7 for the second.

Going from “RNA1{[moe]([m5C])[sp].[moe](G)p.[moe](T)p.[moe]([m5C])p.d(T)[sp].d([m5C])[sp].d(T)[sp].d(T)[sp].d(T)[sp].d([m5C])[sp].d(T)[sp].d(T)[sp].d(A)[sp].d(T)[sp].[moe](T)p.[moe](T)p.[moe]([m5C])p.[moe](T)[sp].[moe](G)}$$$$ (last 3' nucleoside missing)” to “RNA1{[moe]([m5C])[sp].[moe](T)p.[moe](A)p.[moe](T)p.[moe](T)[sp].d(T)[sp].d(T)[sp].d(A)[sp].d(T)[sp].d(A)[sp].d(A)[sp].d(A)[sp].d(T)[sp].[moe](G)p.[moe]([m5C])p.[moe]([m5C])[sp].[moe](G)}$$$$ (last 3' nucleoside missing)”, the 3 h FOB score falls from 1 score 0-7 to 0 score 0-7.

“RNA1{[moe](G)[sp].[moe]([m5C])p.[moe](T)p.[moe](T)p.[moe](T)p.d([m5C])[sp].d([m5C])[sp].d([m5C])[sp].d(T)[sp].d(T)[sp].d(T)[sp].d(A)[sp].d(T)[sp].d(T)[sp].d([m5C])[sp].[moe](A)p.[moe](A)p.[moe](T)[sp].[moe](A)}$$$$ (last 3' nucleoside missing)” and “RNA1{[moe](A)[sp].[moe]([m5C])p.[moe]([m5C])p.[moe]([m5C])p.[moe](A)p.d(G)[sp].d(T)[sp].d(T)[sp].d(T)[sp].d(T)[sp].d(T)[sp].d(T)[sp].d([m5C])[sp].d(A)[sp].d(T)[sp].[moe](T)p.[moe](G)p.[moe]([m5C])[sp].[moe](A)}$$$$ (last 3' nucleoside missing)” are the same in 3 h FOB score: 0 score 0-7 for the first, 0 score 0-7 for the second.

Going from “RNA1{[moe](T)[sp].[moe](T)p.[moe]([m5C])p.[moe](T)p.[moe](G)p.d([m5C])[sp].d(A)[sp].d(T)[sp].d(G)[sp].d(T)[sp].d(A)[sp].d(A)[sp].d([m5C])[sp].d([m5C])[sp].d(T)[sp].[moe](T)p.[moe](T)p.[moe](A)[sp].[moe](T)}$$$$ (last 3' nucleoside missing)” to “RNA1{[moe](G)[sp].[moe](A)p.[moe]([m5C])p.[moe](A)p.[moe](T)p.d(A)[sp].d(T)[sp].d(T)[sp].d(T)[sp].d(T)[sp].d(T)[sp].d([m5C])[sp].d(T)[sp].d(A)[sp].d([m5C])[sp].[moe](A)p.[moe]([m5C])p.[moe](T)[sp].[moe](G)}$$$$ (last 3' nucleoside missing)”, the 3 h FOB score rises from 1 score 0-7 to 1.67 score 0-7.

Going from “RNA1{[moe]([m5C])[sp].[moe](A)p.[moe](T)p.[moe](G)p.[moe]([m5C])p.[moe](A)p.d(T)[sp].d(A)[sp].d(A)[sp].d(T)[sp].d([m5C])[sp].d([m5C])[sp].d([m5C])[sp].d(A)[sp].d(T)[sp].d(T)[sp].[moe](A)p.[moe](T)[sp].[moe](A)}$$$$ (last 3' nucleoside missing)” to “RNA1{[moe]([m5C])[sp].[moe](A)p.[moe](T)p.[moe](A)p.[moe](T)p.d(T)[sp].d(T)[sp].d(T)[sp].d(T)[sp].d([m5C])[sp].d(T)[sp].d(A)[sp].d([m5C])[sp].d(A)[sp].d([m5C])[sp].[moe](T)p.[moe](G)p.[moe]([m5C])[sp].[moe](T)}$$$$ (last 3' nucleoside missing)”, the 3 h FOB score rises from 0 score 0-7 to 2 score 0-7.

In the case of “RNA1{[moe](G)[sp].[moe](T)p.[moe]([m5C])p.[moe](T)p.d([m5C])[sp].d(T)[sp].d(T)[sp].d(T)[sp].d([m5C])[sp].d(T)[sp].d(T)[sp].d(A)[sp].d(T)[sp].d(T)[sp].[moe](T)p.[moe]([m5C])p.[moe](T)p.[moe](G)[sp].[moe](T)}$$$$ (last 3' nucleoside missing)”, the 3 h FOB score is reported as 0 score 0-7.
